# What was measured:
# S. pneumoniae = details: exogenous activation of lung iNKT cells; high dose of bacteria; no previous influenza; cited from earlier work
# S. pneumoniae serotype 1 = test system: S. pneumoniae serotype 1; set-up: species or system mice; details: mouse, in vivo
# iNKT cells = assay: Analysis of lung iNKT cell activation (intracellular IFN-γ, flow cytometry); assay type: in vivo, mice; details: lung iNKT cells of IAV-experienced animals (day 7 post-IAV) compared with naïve animals; i.n. administration
smiles,measurement,setting,value
"CCCCCCCCCCCCCCCCCCCCCCCCCC(=O)N[C@@H](CO[C@H]1O[C@H](CO)[C@H](O)[C@H](O)[C@H]1O)[C@H](O)[C@H](O)CCCCCCCCCCCCCC [α-GalCer, α-galactosylceramide]",clearance of S. pneumoniae,S. pneumoniae,leads to the clearance of S. pneumoniae
same,"protection against S. pneumoniae challenge, as assessed by the enhanced survival rate",S. pneumoniae serotype 1,~70%
same,iNKT cell activation (IFN-γ production) in response to α-GalCer,iNKT cells,leads to iNKT cell activation
